Reference: ChEMBL document CHEMBL2034921, “5-(5-(6-[(11)C]methyl-3,6-diazabicyclo[3.2.0]heptan-3-yl)pyridin-2-yl)-1H-indole as a potential PET radioligand for imaging cerebral α7-nAChR in mice” (Bioorg Med Chem, 2012)

Tests used:
Type in all cases: ADME, organism-based
[1] = system: Hippocampus; assay: Biodistribution in CD1 mouse hippocampus at 3.7 MBq, iv after 90 mins in presence of 0.5 mg/kg, sc of PHA543613; design: dose 0.5 mg/kg, route intravenous; settings: in vivo, 1.5 h
[2] = system: Hippocampus; assay: Biodistribution in CD1 mouse hippocampus at 0.1 mCi, iv at 30 mins by gamma counting; settings: in vivo, 0.5 h
[3] = system: Mus musculus; assay: Biodistribution in CD1 mouse frontal cortex at 3.7 MBq, iv after 90 mins in presence of 0.5 mg/kg, sc of PHA543613; design: dose 0.5 mg/kg, route intravenous; settings: in vivo, 1.5 h
[4] = system: Mus musculus; assay: Biodistribution in CD1 mouse frontal cortex at 0.1 mCi, iv at 30 mins by gamma counting; settings: in vivo, 0.5 h
[5] = system: Striatum; assay: Biodistribution in CD1 mouse striatum at 0.1 mCi, iv at 30 mins by gamma counting; settings: in vivo, 0.5 h
[6] = system: Thalamus; assay: Biodistribution in CD1 mouse thalamus at 0.1 mCi, iv at 30 mins by gamma counting; settings: in vivo, 0.5 h

Measured: Drug uptake

[11CH3]N1CC2CN(c3ccc(-c4ccc5[nH]ccc5c4)nc3)CC21 (racemic)
Not Active: [1] | [3]
Active: all other assays above
